Measured values reported in ChEMBL document CHEMBL1156335, “Inhibition studies of a beta-carbonic anhydrase from Brucella suis with a series of water soluble glycosyl sulfanilamides” (Bioorg Med Chem Lett, 2010).
Calls of active or inactive are those of the source. The rule behind the calls is not given here.

Biological target: T1, Histidinol dehydrogenase (Brucella suis biovar 1 (strain 1330)) (UniProt Q8G2R2)
T1 sequence (whole entry): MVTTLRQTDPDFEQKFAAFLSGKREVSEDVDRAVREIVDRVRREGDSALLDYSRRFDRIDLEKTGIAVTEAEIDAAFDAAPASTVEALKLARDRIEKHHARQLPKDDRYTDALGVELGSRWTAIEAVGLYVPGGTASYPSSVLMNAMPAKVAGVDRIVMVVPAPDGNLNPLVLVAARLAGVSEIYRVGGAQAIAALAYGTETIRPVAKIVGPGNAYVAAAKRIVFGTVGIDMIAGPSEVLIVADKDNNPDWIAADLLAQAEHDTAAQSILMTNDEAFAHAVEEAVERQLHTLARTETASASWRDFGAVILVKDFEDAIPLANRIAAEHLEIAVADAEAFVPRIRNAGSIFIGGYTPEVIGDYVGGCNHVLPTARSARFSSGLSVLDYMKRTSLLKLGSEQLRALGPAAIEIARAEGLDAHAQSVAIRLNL
Experiment: Antibacterial activity against Brucella suis at 10 uM after 8 to 11 days
Assay type: functional

## C[C@H]1O[C@@H](Nc2ccc(S(N)(=O)=O)cc2)[C@@H](O)[C@@H](O)[C@@H]1O
  Activity: Active
